Reference: ChEMBL document CHEMBL3885881, “DrugMatrix”

Species: Rattus norvegicus
Test: DrugMatrix - Regimen: Daily Repeat
Format: toxicity, organism-based, Sprague-Dawley
Parameters: regimen Daily Repeat, gender Male, age 6-8 weeks
Conditions: in vivo, sc, route subcutaneous, […]; for ABSOLUTE MONOCYTE / ABSOLUTE SEGMENTED NEUTROPHIL / BASOPHIL / EOSINOPHIL / ERYTHROCYTE COUNT / HEMATOCRIT / HEMOGLOBIN / LEUKOCYTE COUNT / LYMPHOCYTE / MEAN CORPUSCULAR HEMOGLOBIN / MEAN CORPUSCULAR HEMOGLOBIN CONCENTRATION / MONOCYTE / NEUTROPHIL / NUCLEATED RED BLOOD CELLS / PLATELET COUNT / ABSOLUTE BASOPHIL / ABSOLUTE EOSINOPHIL / ABSOLUTE LYMPHOCYTE: tissue Blood
[1] = 10 mg/kg, 120 h, dose level Low, time 5 day
[2] = 10 mg/kg, 120 h, tissue Plasma, dose level Low, time 5 day
[3] = 100 mg/kg, 72 h, dose level High, time 3 day
[4] = 100 mg/kg, 72 h, tissue Plasma, dose level High, time 3 day
[5] = 100 mg/kg, 120 h, dose level High, time 5 day
[6] = 100 mg/kg, 120 h, tissue Plasma, dose level High, time 5 day

Substance: COBALT(II) ACETYLACETONATE
- ABSOLUTE MONOCYTE [1]: 35.33 CELLS/uL
- ABSOLUTE SEGMENTED NEUTROPHIL [1]: 1425 CELLS/uL
- BASOPHIL [1]: 0%
- EOSINOPHIL [1]: 1%
- ERYTHROCYTE COUNT [1]: 5.83 x10E6/uL
- HEMATOCRIT [1]: 36.63%
- HEMOGLOBIN [1]: 13.67 G/DL
- LEUKOCYTE COUNT [1]: 11.87 x10E3/uL
- LYMPHOCYTE [1]: 86.67%
- MEAN CORPUSCULAR HEMOGLOBIN [1]: 23.47 pg
- MEAN CORPUSCULAR HEMOGLOBIN CONCENTRATION [1]: 37.3 G/DL
- MONOCYTE [1]: 0.33%
- NEUTROPHIL [1]: 12%
- NUCLEATED RED BLOOD CELLS [1]: 0 /100WBC
- PLATELET COUNT [1]: 1357.67 x10E3/uL
- ALANINE AMINOTRANSFERASE [2]: 36.67 u/L
- ALBUMIN [2]: 4.6 G/DL
- ALKALINE PHOSPHATASE [2]: 390 u/L
- ASPARTATE AMINOTRANSFERASE [2]: 87 u/L
- BLOOD UREA NITROGEN [2]: 22 mg/dL
- CARBON DIOXIDE [2]: 21.67 mmol/L
- CHOLESTEROL [2]: 77 mg/dL
- CREATINE PHOSPHOKINASE [2]: 460.67 u/L
- CREATININE [2]: 0.24 mg/dL
- GLUCOSE [2]: 176.67 mg/dL
- LACTATE DEHYDROGENASE [2]: 122.67 u/L
- PHOSPHORUS [2]: 13.67 mg/dL
- POTASSIUM [2]: 6.74 MEQ/L
- TOTAL BILIRUBIN [2]: 0.2 mg/dL
- TOTAL PROTEIN [2]: 6.7 G/DL
- URIC ACID [2]: 2.8 mg/dL
- ABSOLUTE BASOPHIL [3]: 0 CELLS/uL
- ABSOLUTE EOSINOPHIL [3]: 73 CELLS/uL
- ABSOLUTE LYMPHOCYTE [3]: 8659.67 CELLS/uL
- ABSOLUTE MONOCYTE [3]: 133.33 CELLS/uL
- ABSOLUTE SEGMENTED NEUTROPHIL [3]: 2500.67 CELLS/uL
- BASOPHIL [3]: 0%
- EOSINOPHIL [3]: 0.67%
- ERYTHROCYTE COUNT [3]: 5.76 x10E6/uL
- HEMOGLOBIN [3]: 13.3 G/DL
- LEUKOCYTE COUNT [3]: 11.37 x10E3/uL
- LYMPHOCYTE [3]: 75.67%
- MEAN CORPUSCULAR HEMOGLOBIN [3]: 23.1 pg
- MEAN CORPUSCULAR HEMOGLOBIN CONCENTRATION [3]: 37.2 G/DL
- MONOCYTE [3]: 1%
- NEUTROPHIL [3]: 22.67%
- NUCLEATED RED BLOOD CELLS [3]: 0 /100WBC
- PLATELET COUNT [3]: 1207 x10E3/uL
- ALANINE AMINOTRANSFERASE [4]: 57.33 u/L
- ALKALINE PHOSPHATASE [4]: 376.67 u/L
- ASPARTATE AMINOTRANSFERASE [4]: 106 u/L
- BLOOD UREA NITROGEN [4]: 17.67 mg/dL
- CARBON DIOXIDE [4]: 26.33 mmol/L
- CHLORIDE [4]: 109 MEQ/L
- CHOLESTEROL [4]: 52.33 mg/dL
- CREATINE PHOSPHOKINASE [4]: 315 u/L
- CREATININE [4]: 0.2 mg/dL
- LACTATE DEHYDROGENASE [4]: 200 u/L
- LIPASE [4]: 9 u/L
- PHOSPHORUS [4]: 10.3 mg/dL
- POTASSIUM [4]: 5.87 MEQ/L
- TOTAL BILIRUBIN [4]: 0.2 mg/dL
- TOTAL PROTEIN [4]: 6 G/DL
- URIC ACID [4]: 0.97 mg/dL
- ABSOLUTE BASOPHIL [5]: 0 CELLS/uL
- ABSOLUTE EOSINOPHIL [5]: 235.33 CELLS/uL
- ABSOLUTE LYMPHOCYTE [5]: 15696 CELLS/uL
- ABSOLUTE SEGMENTED NEUTROPHIL [5]: 4063 CELLS/uL
- BASOPHIL [5]: 0%
- ERYTHROCYTE COUNT [5]: 5.59 x10E6/uL
- HEMATOCRIT [5]: 34.73%
- HEMOGLOBIN [5]: 13.17 G/DL
- LEUKOCYTE COUNT [5]: 20.17 x10E3/uL
- LYMPHOCYTE [5]: 77%
- MEAN CORPUSCULAR HEMOGLOBIN [5]: 23.57 pg
- MEAN CORPUSCULAR HEMOGLOBIN CONCENTRATION [5]: 37.9 G/DL
- MONOCYTE [5]: 1%
- NEUTROPHIL [5]: 20.67%
- NUCLEATED RED BLOOD CELLS [5]: 0 /100WBC
- PLATELET COUNT [5]: 1455 x10E3/uL
- ALANINE AMINOTRANSFERASE [6]: 47.67 u/L
- ALBUMIN [6]: 3.9 G/DL
- ALKALINE PHOSPHATASE [6]: 334.67 u/L
- ASPARTATE AMINOTRANSFERASE [6]: 110.33 u/L
- BLOOD UREA NITROGEN [6]: 19 mg/dL
- CARBON DIOXIDE [6]: 16 mmol/L
- CHLORIDE [6]: 111.67 MEQ/L
- CHOLESTEROL [6]: 47.67 mg/dL
- CREATINE PHOSPHOKINASE [6]: 488.33 u/L
- CREATININE [6]: 0.18 mg/dL
- LACTATE DEHYDROGENASE [6]: 467.33 u/L
- LIPASE [6]: 8.33 u/L
- PHOSPHORUS [6]: 12.73 mg/dL
- POTASSIUM [6]: 7.45 MEQ/L
- TOTAL BILIRUBIN [6]: 0.23 mg/dL
- TOTAL PROTEIN [6]: 6.1 G/DL
- URIC ACID [6]: 3.1 mg/dL
